Measurements published in patent US10239887B2, “Positive allosteric modulators of the muscarinic acetylcholine receptor M4” (Vanderbilt University, priority 2016, dated 2019).
Counter-ions that a name gives are not always drawn. Like-named read-outs stand apart in the source and are kept apart here.

Biological target: T1, human mAChR M4 (Homo sapiens, UniProt P08173)
T1 sequence (P08173 1-479): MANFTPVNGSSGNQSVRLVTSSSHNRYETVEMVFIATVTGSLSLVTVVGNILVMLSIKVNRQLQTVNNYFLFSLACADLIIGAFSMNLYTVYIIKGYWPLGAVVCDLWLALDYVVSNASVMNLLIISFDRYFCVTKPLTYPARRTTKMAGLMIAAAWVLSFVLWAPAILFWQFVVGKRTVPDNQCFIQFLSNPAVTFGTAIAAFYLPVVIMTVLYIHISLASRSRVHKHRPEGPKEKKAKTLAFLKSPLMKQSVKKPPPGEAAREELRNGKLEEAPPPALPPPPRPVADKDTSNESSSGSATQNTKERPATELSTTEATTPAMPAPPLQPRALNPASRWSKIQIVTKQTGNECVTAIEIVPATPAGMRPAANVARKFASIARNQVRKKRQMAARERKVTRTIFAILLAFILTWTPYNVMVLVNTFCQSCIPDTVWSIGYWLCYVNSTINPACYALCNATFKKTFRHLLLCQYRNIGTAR
Experiment: mAChR M4 cell-based functional assay (calcium flux), human M4
Details: for EC50: Human M4 EC50 (nM), calcium flux, PAM activity with EC20 acetylcholine

[1] = Table 10, % ACh maximum at 30 μM

Row | SMILES | EC50 (Table 10) [nM] | Emax [1] [%] | Emax [%]
1 | Cc1nnc2sc3c(N4CC(C)(N)C4)ncnc3c2c1C [Compound 98, 1-(3,4-dimethylpyrimido [4′,5′:4,5]thieno[2,3-c]pyridazin-8-yl)-3-methyl-azetidin-3-amine dihydrochloride] | 2390 | 50.1 | –
2 | Cc1nnc2sc3c(N4CC[C@@H](N)C4)ncnc3c2c1C [Compound 99, (3R)-1-(3,4-dimethylpyrimido [4′,5′:4,5]thieno[2,3-c]pyridazin-8-yl)pyrrolidin-3-amine dihydrochloride] | 1040 | 54 | –
3 | Cc1nnc2sc3c(NC(C)c4ccc(C(C)(C)O)cc4)ncnc3c2c1C (stereo not drawn) [Compound 100, 2-[4-[1-[(3,4-dimethylpyrimido [4′,5′:4,5]thieno[2,3-c]pyridazin-8-yl)amino]ethyl]phenyl]propan-2-ol] | 7720 | 52.2 | –
4 | Cc1nnc2sc3c(NC(C)c4ccc(C5(O)CCC5)cc4)ncnc3c2c1C (stereo not drawn) [Compound 101, 1-[4-[1-[(3,4-dimethylpyrimido [4′,5′:4,5]thieno[2,3-c]pyridazin-8-yl)amino]ethyl]phenyl]cyclobutanol] | 839 | 59.2 | –
5 | Cc1nnc2sc3c(NCc4cccc(C5(O)CCC5)c4)ncnc3c2c1C [Compound 102, 1-[3-[[(3,4-dimethylpyrimido [4′,5′:4,5]thieno[2,3-c]pyridazin-8-yl)amino]methyl]phenyl] cyclobutanol] | 135 | 53.3 | –
6 | Cc1nnc2sc3c(N4CC(O)(C5CC5)C4)ncnc3c2c1C [Compound 103, 3-cyclopropyl-1-(3,4-dimethylpyrimido [4′,5′:4,5]thieno[2,3-c]pyridazin-8-yl)azetidin-3-ol] | 122 | 80.3 | –
7 | Cc1nnc2sc3c(N4CC(C(N)=O)C4)ncnc3c2c1C [Compound 104, 1-(3,4-dimethylpyrimido [4′,5′:4,5]thieno[2,3-c]pyridazin-8-yl)azetidine-3-carboxamide] | 2100 | 52.9 | –
8 | Cc1nnc2sc3c(N4CC5(CNC5)C4)ncnc3c2c1C [Compound 105, 8-(2,6-diazaspiro[3.3]heptan-2-yl)-3,4-dimethyl-pyrimido [4′,5′:4,5]thieno[2,3-c] pyridazine] | 627 | – | 55.6
9 | Cc1nnc2sc3c(NCc4ccc(C(C)(C)O)nc4)ncnc3c2c1C [Compound 106, 2-[5-[[(3,4-dimethylpyrimido [4′,5′:4,5]thieno[2,3-c]pyridazin-8-yl)amino]methyl]-2-pyridyl]propan-2-ol] | – | 54.1 | –
10 | Cc1nnc2sc3c(NCc4ccc(C(C)(C)O)cc4F)ncnc3c2c1C [Compound 107, 2-[4-[[(3,4-dimethylpyrimido [4′,5′:4,5]thieno[2,3-c]pyridazin-8-yl)amino]methyl]-3-fluoro-phenyl]propan-2-ol] | 207 | 78.8 | –
11 | Cc1nnc2sc3c(NCc4ccc(CN5CCOCC5)cc4)ncnc3c2c1C [Compound 108, 3,4-dimethyl-N-[[4-(morpholinomethyl)phenyl]methyl]pyrimido[4′,5′:4,5] thieno[2,3-c] pyridazin-8-amine hydrochloride] | 148 | – | 76.8
12 | Cc1nnc2sc3c(NCc4ccc(-c5ccccn5)cc4)ncnc3c2c1C [Compound 109, 3,4-dimethyl-N-[[4-(2-pyridyl)phenyl]methyl] pyrimido[4′,5′:4,5]thieno [2,3-c]pyridazin-8-amine hydrochloride] | 748 | 79.2 | –
13 | Cc1nnc2sc3c(NCc4ccc(Oc5ccccn5)cc4)ncnc3c2c1C [Compound 110, 3,4-dimethyl-N-[[4-(2-pyridyloxy)phenyl]methyl] pyrimido[4′,5′:4,5]thieno [2,3-c]pyridazin-8-amine hydrochloride] | 971 | 59.3 | –
14 | Cc1nnc2sc3c(NCc4ccc(N5CCN(C)CC5)cc4)ncnc3c2c1C [Compound 111, 3,4-dimethyl-N-[[4-(4-methylpiperazin-1-yl)phenyl]methyl] pyrimido[4′,5′:4,5] thieno[2,3-c] pyridazin-8-amine hydrochloride] | 126 | 70.5 | –
